# From patent US6642178B2, “Adjuvant blend for enhancing efficacy of pesticides” (priority 2001, dated 2003)
# Legend:
# green foxtail = assay: Green foxtail control with nicosulfuron as influenced by adjuvants (greenhouse); assay type: in vivo; conditions: nicosulfuron 0.04 oz/A, no adjuvant; 2 WAT
# Description: TABLE 3 includes the results of assessment made 2 WAT (weeks after treatment).
# large crabgrass = assay: Large crabgrass control with nicosulfuron as influenced by adjuvants (greenhouse); assay type: in vivo; conditions: nicosulfuron 0.2 oz/A, no adjuvant, 3 WAT
# Description: TABLE 2 includes the results of assessment made 3 WAT (weeks after treatment). Visible injury rating is on a scale 0 to 100% with 0% representing no visible injury and 100% complete kill.
compound,measurement,setting,value
COc1cc(OC)nc(NC(=O)NS(=O)(=O)c2ncccc2C(=O)N(C)C)n1 [nicosulfuron],% fresh weight reduction,green foxtail,0%
same,% fresh weight reduction,large crabgrass,57%
same,% visible injury,large crabgrass; scale 0-100%,31%
